The target in one assay is CDK2/Cyclin A2 (Homo sapiens, UniProt P20248). The assay can be described thus: In vitro kinase assay, 32P filter capture with GST-Rb substrate. Format: biochemical.
Another assay has as its target CDK2/E (Homo sapiens, UniProt P24864). Briefly: In vitro kinase assay.

The structures appear in SMILES notation. pIC50: −log10 of the molar value.

On to `CC[C@H](C)[C@H](NC(=O)[C@H](CC(C)C)NC(=O)[C@H](CCCNC(=N)N)NC(=O)[C@H](CCCNC(=N)N)NC(=O)[C@H](CCCCN)NC(=O)[C@H](C)NC(=O)[C@@H](N)Cc1c[nH]cn1)C(=O)N[C@@H](Cc1ccco1)C(N)=O` [HAKRRLIX1], for which the results for the pIC50 on CDK2/Cyclin A2 and at CDK2/E were 5.21 and 5.89, respectively.

The term pIC50 denotes −log10 of the IC50, conventionally taken in molar units. Lower therefore signals a large IC50.
